According to patent US4119667A, “Haloaniline derivatives as plant growth modifiers” (Rohm and Haas Company, priority 1974, dated 1978):
Where two headings read alike, the source gives them in different places.

Columns and labels:
soybean (Var. Clark) [1] = test: effect of haloaniline derivatives on soybean yields at different rates and stages of growth (Table VIII); assay type: in vivo
Experimental: a further experiment was conducted to determine the effect of selected haloaniline derivatives on soybean yields at different rates of application, and at differing stages of growth.
Soybeans (Var. Clark) were planted at the rate of 4 seeds per 6 inch pot in a medium of 1 part humus and 2 parts soil. Two weeks after planting two uniform plants were selected from each pot for treatment. The soybeans were treated weekly with a high analysis liquid fertilizer. The candidate compounds were dissolved in acetone-water (1:1) and applied at three timings as a foliar spray in a carrier volume of 50 gallons per acre using a moving belt sprayer at rates ranging from 0.1 to two lbs. per acre. Six plants were used for each treatment. The beans were harvested eight weeks after the third treatment and the seeds and pods per plant were counted.

soybean (Var. Clark) [2] = test: greenhouse growth regulator test on soybean (Table I); assay type: in vivo; settings: two weeks after application; for Injury (0-10): 0-10 scale, 0 = no effect, 10 = complete kill; for pest or weed control / pest or weed control at 2241.7 g/ha: Glycine max, foliar, 336 h, relative to control, read-out: Height (% inhib.)
From the text: Limited greenhouse experiments shown that there is promotion of lateral bud growth when compounds are applied at higher concentrations and earlier timings and an increase in soybean pod numbers at lower rates applied just prior to or at the flowering stage. […] Three parameters are reported in Table I to indicate the general spectrum of activity for each evaluated compound including the propensity for releasing lateral bud growth in soybeans. These are: (a) plant height measured as percent inhibition relative to the control; (b) the number of lateral buds per plant; and (c) phytotoxic injury on a scale of 0 to 10 (10 being maximum injury). Sampling compounds were evaluated in the greenhouse in a special growth regulator test. Four to five soybean seeds (Var. Clark) were planted in 4-inch pots with a humus-soil mixture. Two weeks after planting, two uniform plants were selected from each pot for treatment. The candidate compounds were dissolved in acetone-water (1:1), and applied as a foliar spray in a carrier volume of 50 gallons per acre, using a moving belt sprayer at a rate of 1/4, 1/2 and 2 lbs/acre. Six plants were used for each treatment. Two weeks after application, the number of laterals per plant, plant injury (0-10 scale; 0 = no effect, 10 = complete kill,) and the height of each plant were recorded. Untreated plants were used as controls.

Row | SMILES | Pods per Plant (soybean (Var. Clark) [1]; 2nd treatment, 0.10 lbs./A) | Seeds per Plant (soybean (Var. Clark) [1]; 2nd treatment, 0.10 lbs./A) | Seeds per Pod (soybean (Var. Clark) [1]; 2nd treatment, 0.10 lbs./A) | Pods per Plant (soybean (Var. Clark) [1]; 2nd treatment, 0.30 lbs./A) | Seeds per Plant (soybean (Var. Clark) [1]; 2nd treatment, 0.30 lbs./A) | Seeds per Pod (soybean (Var. Clark) [1]; 2nd treatment, 0.30 lbs./A) | Pods per Plant (soybean (Var. Clark) [1]; 2nd treatment, 0.90 lbs./A) | Seeds per Plant (soybean (Var. Clark) [1]; 2nd treatment, 0.90 lbs./A) | Seeds per Pod (soybean (Var. Clark) [1]; 2nd treatment, 0.90 lbs./A) | Pods per Plant (soybean (Var. Clark) [1]; 3rd treatment, 0.10 lbs./A) | Seeds per Plant (soybean (Var. Clark) [1]; 3rd treatment, 0.10 lbs./A) | No. Laterals per plant (soybean (Var. Clark) [2]; 1/2 lbs/acre foliar spray) | Injury (0-10) (soybean (Var. Clark) [2]; 1/2 lbs/acre) | No. Laterals per plant (soybean (Var. Clark) [2]; 1/4 lbs/acre foliar spray) | Injury (0-10) (soybean (Var. Clark) [2]; 1/4 lbs/acre) | No. Laterals per plant (soybean (Var. Clark) [2]; 2 lbs/acre foliar spray) | Injury (0-10) (soybean (Var. Clark) [2]; 2 lbs/acre) | pest or weed control (soybean (Var. Clark) [2]; 1/2 lbs/acre foliar spray) [%] | pest or weed control (soybean (Var. Clark) [2]; 1/4 lbs/acre foliar spray) [%] | pest or weed control at 2241.7 g/ha (soybean (Var. Clark) [2]; 2 lbs/acre foliar spray) [%] | also measured
1 | Clc1cc(Cl)cc(N=Cc2ccccc2)c1 [IV, 3,5-dichloro-N-benzylideneaniline] | 8.3 | 8.3 | 1.0 | 0.7 | 1.0 | 1.5 | 2.7 | 3.2 | 1.2 | 16.5 | 37.0 | 2 | 0 | 3 | 0 | 5 | 1 | 5 | 7 | 17 | Seeds per Pod (soybean (Var. Clark) [1]; 3rd treatment, 0.10 lbs./A): 2.2; Pods per Plant (soybean (Var. Clark) [1]; 3rd treatment, 0.30 lbs./A): 13.2; Seeds per Plant (soybean (Var. Clark) [1]; 3rd treatment, 0.30 lbs./A): 23.3; Seeds per Pod (soybean (Var. Clark) [1]; 3rd treatment, 0.30 lbs./A): 1.7; Pods per Plant (soybean (Var. Clark) [1]; 3rd treatment, 0.90 lbs./A): 19.3; Seeds per Plant (soybean (Var. Clark) [1]; 3rd treatment, 0.90 lbs./A): 37.7; Seeds per Pod (soybean (Var. Clark) [1]; 3rd treatment, 0.90 lbs./A): 1.9
2 | Clc1ccc(N=Cc2ccccc2)cc1Cl [XIII, 3,4-Dichloro-N-benzylideneaniline] | 13.7 | 20.5 | 1.5 | 12.0 | 17.7 | 1.5 | 5.2 | 6.7 | 1.3 | 5.5 | 7.8 | 4 | 0 | 2 | 1 | 3 | 4 | 9 | 17 | 19 | Seeds per Pod (soybean (Var. Clark) [1]; 3rd treatment, 0.10 lbs./A): 1.4; Pods per Plant (soybean (Var. Clark) [1]; 3rd treatment, 0.30 lbs./A): 11.0; Seeds per Plant (soybean (Var. Clark) [1]; 3rd treatment, 0.30 lbs./A): 17.2; Seeds per Pod (soybean (Var. Clark) [1]; 3rd treatment, 0.30 lbs./A): 1.6; Pods per Plant (soybean (Var. Clark) [1]; 3rd treatment, 0.90 lbs./A): 9.3; Seeds per Plant (soybean (Var. Clark) [1]; 3rd treatment, 0.90 lbs./A): 16.7; Seeds per Pod (soybean (Var. Clark) [1]; 3rd treatment, 0.90 lbs./A): 1.8
3 | Clc1cc(Cl)cc(NCNc2cc(Cl)cc(Cl)c2)c1 [I, N,N'-Bis[3,5-dichlorophenyl]methanediamine] | 24.5 | 42.7 | 1.7 | 14.5 | 9.3 | 0.6 | 9.0 | 4.3 | 0.5 | 7.0 | 12.8 | 3 | 0 | 1 | 0 | 5 | 1 | 4 | 5 | 17 | Seeds per Pod (soybean (Var. Clark) [1]; 3rd treatment, 0.10 lbs./A): 1.8; Pods per Plant (soybean (Var. Clark) [1]; 3rd treatment, 0.30 lbs./A): 8.3; Seeds per Plant (soybean (Var. Clark) [1]; 3rd treatment, 0.30 lbs./A): 13.3; Seeds per Pod (soybean (Var. Clark) [1]; 3rd treatment, 0.30 lbs./A): 1.6; Pods per Plant (soybean (Var. Clark) [1]; 3rd treatment, 0.90 lbs./A): 7.2; Seeds per Plant (soybean (Var. Clark) [1]; 3rd treatment, 0.90 lbs./A): 13.3; Seeds per Pod (soybean (Var. Clark) [1]; 3rd treatment, 0.90 lbs./A): 1.5
4 | O=CNc1cc(Cl)cc(Cl)c1 [XVIII, 3',5'-dichloroformanilide] | 16.2 | 17.5 | 1.1 | 9.2 | 6.3 | 0.7 | 0.5 | 0.5 | 1.0 | 9.3 | 15.2 | 5 | 1 | 4 | 0 | 5 | 1 | 11 | 3 | 15 | Pods per Plant (soybean (Var. Clark) [1]; 1st treatment, 0.25 lbs./A): 1.4; Seeds per Plant (soybean (Var. Clark) [1]; 1st treatment, 0.25 lbs./A): 0.0; Seeds per Pod (soybean (Var. Clark) [1]; 1st treatment, 0.25 lbs./A): 0.0; Pods per Plant (soybean (Var. Clark) [1]; 1st treatment, 0.50 lbs./A): 0.8; Seeds per Plant (soybean (Var. Clark) [1]; 1st treatment, 0.50 lbs./A): 1.0; Seeds per Pod (soybean (Var. Clark) [1]; 1st treatment, 0.50 lbs./A): 1.3; Pods per Plant (soybean (Var. Clark) [1]; 1st treatment, 1.00 lbs./A): 0.0; Seeds per Plant (soybean (Var. Clark) [1]; 1st treatment, 1.00 lbs./A): 0.0; Seeds per Pod (soybean (Var. Clark) [1]; 1st treatment, 1.00 lbs./A): 0.0; Pods per Plant (soybean (Var. Clark) [1]; 1st treatment, 2.00 lbs./A): 0.0; Seeds per Plant (soybean (Var. Clark) [1]; 1st treatment, 2.00 lbs./A): 0.0; Seeds per Pod (soybean (Var. Clark) [1]; 1st treatment, 2.00 lbs./A): 0.0; Seeds per Pod (soybean (Var. Clark) [1]; 3rd treatment, 0.10 lbs./A): 1.6; Pods per Plant (soybean (Var. Clark) [1]; 3rd treatment, 0.30 lbs./A): 5.2; Seeds per Plant (soybean (Var. Clark) [1]; 3rd treatment, 0.30 lbs./A): 10.5; Seeds per Pod (soybean (Var. Clark) [1]; 3rd treatment, 0.30 lbs./A): 2.0; Pods per Plant (soybean (Var. Clark) [1]; 3rd treatment, 0.90 lbs./A): 5.2; Seeds per Plant (soybean (Var. Clark) [1]; 3rd treatment, 0.90 lbs./A): 9.5; Seeds per Pod (soybean (Var. Clark) [1]; 3rd treatment, 0.90 lbs./A): 1.8
5 | Clc1cc(Cl)cc(N=Cc2ccccc2Cl)c1 [V, 3,5-dichloro-N-(2-chlorobenzylidine)aniline] | – | – | – | – | – | – | – | – | – | – | – | 3 | 0 | 2 | 0 | 5 | 0 | 8 | 1 | 13 | –
6 | Brc1cc(Br)cc(NCNc2cc(Br)cc(Br)c2)c1 [III, n,n'-bis[3,5-dibromophenyl]methanediamine] | – | – | – | – | – | – | – | – | – | – | – | 0 | 1 | 0 | 1 | 3 | 1 | 2 | 0 | 0 | –
7 | Clc1cc(Cl)cc(N=Cc2c(Cl)cccc2Cl)c1 [VIII, 3,5-dichloro-N-(2,6-dichlorobenzylidene)aniline] | – | – | – | – | – | – | – | – | – | – | – | 2 | 0 | 0 | 0 | 5 | 0 | 7 | 1 | 15 | –
8 | Clc1ccc(C=Nc2ccc(Cl)c(Cl)c2)cc1 [XI, 3,4-dichloro-N-(4-chlorobenzylidene)aniline] | – | – | – | – | – | – | – | – | – | – | – | 5 | 1 | 1 | 0 | 4 | 3 | 25 | 4 | 14 | –
